Experiment [1] has as its target mCGRP receptor (Mus musculus, UniProt Q9R1W5+Q9WTJ5). Briefly: cell-based. Conditions: SEM.
Protocol: (§1) Cells were grown in a humidified incubator at 37°C and 5% CO2 and seeded into 96-well plates at a density of 20,000 cells/well. The following day, Cos-7 cells were transiently transfected using Polyethylenimine (PEI) using a 1:1 ratio of receptor:RAMP DNA.
(§2) Transfected Cos-7 cells were incubated with agonist in the presence or absence of antagonist at 37°C for 15 min. cAMP production was terminated by aspirating all the media in the wells, followed by the addition of 50 μl of ice-cold ethanol.
(§3) The Hill slope was constrained to one following agonist analyses. The Schild slope was also constrained to one. The pA2 and pKB values were obtained from the Schild analysis. For washout experiments, the same method of analysis was applied to the antagonists, but with minor revisions. The Schild analysis relied on the matched control agonist curves i.e. those derived from the same experimental conditions as the agonist + antagonist curves. Normalization was also specific to the matched control agonist curves.
(§4) Mean pEC50, pKB and pA2 values from at least three independent experiments before normalization were also presented as mean ± SEM. pEC50, pKB and pA2 values from independent experiments were grouped and compared by unpaired Student’s t-test or by one-way ANOVA. […]
Experiment [2] deals with T1, mAMY1 receptor (Mus musculus, UniProt Q60755+Q9WTJ5).
T1 sequence (Q60755 42-496 isoform Q60755-2 limits assumed): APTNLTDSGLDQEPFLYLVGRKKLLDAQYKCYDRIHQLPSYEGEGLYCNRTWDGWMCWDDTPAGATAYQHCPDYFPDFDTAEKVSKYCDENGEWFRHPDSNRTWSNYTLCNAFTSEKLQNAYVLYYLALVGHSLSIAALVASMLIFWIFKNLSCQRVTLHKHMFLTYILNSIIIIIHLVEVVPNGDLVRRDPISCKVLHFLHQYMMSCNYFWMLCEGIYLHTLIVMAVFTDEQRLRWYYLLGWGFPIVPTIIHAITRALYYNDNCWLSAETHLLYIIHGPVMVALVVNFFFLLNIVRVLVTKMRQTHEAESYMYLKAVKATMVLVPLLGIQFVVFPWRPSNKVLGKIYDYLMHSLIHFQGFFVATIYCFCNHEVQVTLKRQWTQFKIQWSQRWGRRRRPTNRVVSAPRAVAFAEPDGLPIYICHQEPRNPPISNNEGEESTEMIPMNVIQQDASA
T1 sequence (Q9WTJ5 27-148): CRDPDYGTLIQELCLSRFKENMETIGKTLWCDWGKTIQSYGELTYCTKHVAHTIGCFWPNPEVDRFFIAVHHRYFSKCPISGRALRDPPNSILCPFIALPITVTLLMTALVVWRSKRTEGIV
Briefly: cell-based. Particulars: SEM.
Protocol: as §1, §2, §3, §4

mCGRP receptor, sequence (Q9R1W5 23-463, one chain of several): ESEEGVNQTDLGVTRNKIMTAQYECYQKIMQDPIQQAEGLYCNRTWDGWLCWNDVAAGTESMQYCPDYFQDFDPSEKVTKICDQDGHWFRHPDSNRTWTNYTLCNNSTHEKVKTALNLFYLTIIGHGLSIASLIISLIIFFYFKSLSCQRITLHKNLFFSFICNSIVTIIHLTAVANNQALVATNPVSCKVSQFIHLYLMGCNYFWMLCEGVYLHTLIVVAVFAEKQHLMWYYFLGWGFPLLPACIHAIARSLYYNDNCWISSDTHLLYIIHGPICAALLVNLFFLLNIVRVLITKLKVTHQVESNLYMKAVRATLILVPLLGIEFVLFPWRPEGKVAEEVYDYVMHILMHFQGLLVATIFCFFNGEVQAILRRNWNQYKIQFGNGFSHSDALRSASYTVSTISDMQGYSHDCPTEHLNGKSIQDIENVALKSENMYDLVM

Take `CC(C)C[C@H](NC(=O)CNC(=O)[C@H](C)NC(=O)[C@H](CC(C)C)NC(=O)[C@H](CCCNC(=N)N)NC(=O)[C@H](Cc1cnc[nH]1)NC(=O)[C@@H](NC(=O)[C@@H](N)C(C)C)[C@@H](C)O)C(=O)N[C@@H](CC(C)C)C(=O)N[C@@H](CO)C(=O)N[C@@H](CCCNC(=N)N)C(=O)N[C@@H](CO)C(=O)NCC(=O)NCC(=O)N[C@H](C(=O)N[C@H](C(=O)N[C@@H](CCCCN)C(=O)N[C@@H](CC(N)=O)C(=O)N[C@@H](CC(N)=O)C(=O)N[C@@H](Cc1ccccc1)C(=O)N[C@H](C(=O)N1CCC[C@H]1C(=O)N[C@H](C(=O)N[C@@H](CC(N)=O)C(=O)N[C@H](C(=O)NCC(=O)N[C@@H](CO)C(=O)N[C@@H](CCCCN)C(=O)N[C@@H](C)C(=O)N[C@@H](Cc1ccccc1)C(N)=O)C(C)C)[C@@H](C)O)C(C)C)C(C)C)C(C)C` [αCGRP8-37]: the Kb is 0.001 µM in experiment [1] and 0.0245 µM in experiment [2].

Values taken from article PMC8942775, “Lipidated Calcitonin Gene-Related Peptide (CGRP) Peptide Antagonists Retain CGRP Receptor Activity and Attenuate CGRP Action In Vivo” (Frontiers in Pharmacology, 2022).
